Measured values: US20250320184A1 (SIRONAX LTD., priority 2022, published 2025)

Each molecule was assayed against T1, SARM1 (50-724) (Homo sapiens, UniProt Q6SZW1) (assay: biochemical).
T1 sequence (Q6SZW1 50-724): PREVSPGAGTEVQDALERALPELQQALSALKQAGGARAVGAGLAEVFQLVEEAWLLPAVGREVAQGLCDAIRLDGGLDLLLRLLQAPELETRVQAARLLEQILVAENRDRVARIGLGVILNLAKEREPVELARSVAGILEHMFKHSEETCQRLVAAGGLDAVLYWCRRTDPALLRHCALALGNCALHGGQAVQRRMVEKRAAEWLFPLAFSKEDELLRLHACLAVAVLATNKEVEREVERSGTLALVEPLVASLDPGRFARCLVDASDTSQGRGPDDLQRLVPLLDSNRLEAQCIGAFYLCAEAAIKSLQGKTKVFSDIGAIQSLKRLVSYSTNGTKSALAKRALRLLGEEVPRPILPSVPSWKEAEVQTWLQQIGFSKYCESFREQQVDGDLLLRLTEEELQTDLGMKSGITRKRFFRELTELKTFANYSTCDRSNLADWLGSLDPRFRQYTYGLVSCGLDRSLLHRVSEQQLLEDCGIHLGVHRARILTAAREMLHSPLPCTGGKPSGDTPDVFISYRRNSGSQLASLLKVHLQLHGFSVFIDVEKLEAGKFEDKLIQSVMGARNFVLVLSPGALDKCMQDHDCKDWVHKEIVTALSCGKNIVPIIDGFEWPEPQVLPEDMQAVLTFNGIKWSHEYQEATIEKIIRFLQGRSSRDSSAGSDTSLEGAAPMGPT
Protocol: An enzymatic assay was performed in a 384-well plate using Dulbecco's phosphate-buffered saline (PBS) as the reaction buffer. […] The reaction was initiated by adding a mixture of 200 μM nicotinamide mononucleotide (NMN) as activator and 100 μM NAD^+ as substrate. After 1 h of incubation at room temperature, the reaction was terminated with 10 times volume of 70% acetonitrile, then centrifuged at 3800 rpm for 10 min.

Row | IC50 [nM] | SMILES
1 | 100 to 500 | NC(=O)c1cccc2ccc(NS(=O)(=O)c3cccc(Cl)c3Cl)cc12 [Compound 87, 7-((2,3-dichlorophenyl)sulfonamido)-1-naphthamide]
2 | < 100 | O=S(=O)(Nc1ccc2c(C3CC3)n[nH]c2c1)c1cccc(Cl)c1Cl [Compound 88, 2,3-dichloro-N-(3-cyclopropyl-1H-indazol-6-yl)benzenesulfonamide]
3 | 100 to 500 | COc1cc2cc(NS(=O)(=O)c3cccc(Cl)c3Cl)ccc2cn1 [Compound 89, 2,3-dichloro-N-(3-methoxyisoquinolin-6-yl)benzenesulfonamide]
4 | < 100 | O=c1[nH]cc(Cl)c2ccc(NS(=O)(=O)c3cccc(Cl)c3Cl)cc12 [Compound 91, 2,3-dichloro-N-(4-chloro-1-oxo-1,2-dihydroisoquinolin-7-yl)benzenesulfonamide]
5 | 100 to 500 | C[C@H](Nc1ccc2ccnc(O)c2c1)c1cccc(Cl)c1 [Compound 92, (S)-7-((1-(3-chlorophenyl)ethyl)amino)isoquinolin-1-ol]
6 | > 1000 | Cc1cc(F)cc(C(Nc2ccc3c(c2)C(=O)NCC3)c2cccnc2)c1 (centres unmarked) [Compound 178]
7 | < 100 | Cc1c[nH]c(=O)c2cc(NS(=O)(=O)c3cccc(Cl)c3Cl)ccc12 [Compound 188, 2,3-dichloro-N-(4-methyl-1-oxo-1,2-dihydroisoquinolin-7-yl)benzenesulfonamide]
8 | < 100 | CC1CNC(=O)c2cc(NS(=O)(=O)c3cccc(Cl)c3Cl)ccc21 (centres unmarked) [Compound 189]
9 | < 100 | Cc1c(Br)cccc1S(=O)(=O)Nc1ccc2cc[nH]c(=O)c2c1 [Compound 191, 3-bromo-2-methyl-N-(1-oxo-1,2-dihydroisoquinolin-7-yl)benzenesulfonamide]
10 | < 100 | O=c1[nH]cc(Cl)c2ccc(NS(=O)(=O)c3c(Cl)ccc(Cl)c3Cl)cc12 [Compound 197, 2,3,6-trichloro-N-(4-chloro-1-oxo-1,2-dihydroisoquinolin-7-yl)benzenesulfonamide]
11 | < 100 | CC(Nc1ccc2nc[nH]c(=O)c2c1)c1nc(Cl)c(Cl)s1 (centres unmarked) [Compound 202, 6-((1-(4,5-dichlorothiazol-2-yl)ethyl)amino)quinazolin-4(3H)-one]
12 | < 100 | CC1(C)C(=O)Nc2cc(NS(=O)(=O)c3cccc(Cl)c3Cl)ccc21 [Compound 204, 2,3-dichloro-N-(3,3-dimethyl-2-oxo-indolin-6-yl)benzenesulfonamide]
13 | 100 to 500 | O=C1NCCOc2ccc(NS(=O)(=O)c3cccc(Cl)c3Cl)cc21 [Compound 206, 2,3-dichloro-N-(5-oxo-3,4-dihydro-2H-1,4-benzoxazepin-7-yl)benzenesulfonamide]
14 | < 100 | O=C1Nc2cc(NS(=O)(=O)c3cccc(Cl)c3Cl)ccc2C12CC2 [Compound 208, 2,3-dichloro-N-(2′-oxospiro[cyclopropane-1,3′-indolin]-6′-yl)benzenesulfonamide]
15 | < 100 | CC1(C)C(=O)Nc2cc(NS(=O)(=O)c3c(Cl)ccc(Cl)c3Cl)ccc21 [Compound 209, 2,3,6-trichloro-N-(3,3-dimethyl-2-oxoindolin-6-yl)benzenesulfonamide]
16 | < 100 | CN1C(=O)C(C)(C)c2ccc(NS(=O)(=O)c3cccc(Cl)c3Cl)cc21 [Compound 211, 2,3-dichloro-N-(1,3,3-trimethyl-2-oxoindolin-6-yl)benzenesulfonamide]
17 | < 100 | O=C1Nc2cc(NS(=O)(=O)c3cccc(Cl)c3Cl)ccc2C12CCCC2 [Compound 212, 2,3-dichloro-N-(2′-oxospiro[cyclopentane-1,3′-indolin]-6′-yl)benzenesulfonamide]
18 | 100 to 500 | O=C1Cc2ccc(NS(=O)(=O)c3cccc(Cl)c3Cl)cc2CN1 [Compound 217, 2,3-dichloro-N-(3-oxo-1,2,3,4-tetrahydroisoquinolin-7-yl)benzenesulfonamide]
19 | < 100 | CC1(C)CNc2cc(NS(=O)(=O)c3cccc(Cl)c3Cl)ccc21 [Compound 219, 2,3-dichloro-N-(3,3-dimethylindolin-6-yl)benzenesulfonamide]
20 | < 100 | CC(=O)N1CC(C)(C)c2ccc(NS(=O)(=O)c3cccc(Cl)c3Cl)cc21 [Compound 220, N-(1-acetyl-3,3-dimethyl-indolin-6-yl)-2,3-dichloro-benzenesulfonamide]
21 | < 100 | O=C1Nc2cc(NS(=O)(=O)c3cccc(Cl)c3Cl)ccc2CO1 [Compound 224, 2,3-dichloro-N-(2-oxo-1,4-dihydro-2H-benzo[d][1,3]oxazin-7-yl)benzenesulfonamide]

Row | IC50 [nM] | SMILES
22 | 100 to 500 | Cn1c(C(N)=O)nc2cc(NS(=O)(=O)c3cccc(Cl)c3Cl)ccc21 [Compound 225, 5-((2,3-dichlorophenyl)sulfonamido)-1-methyl-1H-benzo[d]imidazole-2-carboxamide]
23 | < 100 | CC1(C)NC(=O)c2cc(NS(=O)(=O)c3cccc(Cl)c3Cl)ccc21 [Compound 227, 2,3-dichloro-N-(1,1-dimethyl-3-oxoisoindolin-5-yl)benzenesulfonamide]
24 | < 100 | CC1C(=O)Nc2cc(NS(=O)(=O)c3cccc(Cl)c3Cl)ccc21 (centres unmarked) [Compound 235]
25 | < 100 | CC1(C)C(=O)N(CCO)c2cc(NS(=O)(=O)c3cccc(Cl)c3Cl)ccc21 [Compound 240, 2,3-dichloro-N-(1-(2-hydroxyethyl)-3,3-dimethyl-2-oxoindolin-6-yl)benzenesulfonamide]
26 | < 100 | CC1(C)C(=O)N(CC(=O)O)c2cc(NS(=O)(=O)c3cccc(Cl)c3Cl)ccc21 [Compound 241, 2-[6-[(2,3-dichlorophenyl)sulfonylamino]-3,3-dimethyl-2-oxo-indolin-1-yl]acetic Acid]
27 | < 100 | CC1(C)CN(C(N)=O)c2cc(NS(=O)(=O)c3cccc(Cl)c3Cl)ccc21 [Compound 242, 6-((2,3-dichlorophenyl)sulfonamido)-3,3-dimethylindoline-1-carboxamide]
28 | < 100 | CC1(C)CN(C(=O)C2CC2)c2cc(NS(=O)(=O)c3cccc(Cl)c3Cl)ccc21 [Compound 243, 2,3-dichloro-N-(1-(cyclopropanecarbonyl)-3,3-dimethylindolin-6-yl)benzenesulfonamide]
29 | < 100 | O=S(=O)(Nc1ccc(Cc2cncs2)cc1)c1cccc(Cl)c1Cl [Compound 251, 2,3-dichloro-N-(4-(thiazol-5-ylmethyl)phenyl)benzenesulfonamide]
30 | < 100 | CC1(C)C(=O)N(CC(N)=O)c2cc(NS(=O)(=O)c3cccc(Cl)c3Cl)ccc21 [Compound 255, 2-[6-[(2,3-dichlorophenyl)sulfonylamino]-3,3-dimethyl-2-oxo-indolin-1-yl]acetamide]
31 | < 100 | CC1(C)CC(=O)c2cc(NS(=O)(=O)c3cccc(Cl)c3Cl)ccc21 [Compound 264, 2,3-dichloro-N-(1,1-dimethyl-3-oxo-2,3-dihydro-1H-inden-5-yl)benzenesulfonamide]
32 | < 100 | CC1(C)CNC(=O)c2cc(NS(=O)(=O)c3cccc(Cl)c3Cl)ccc21 [Compound 265, 2,3-dichloro-N-(4,4-dimethyl-1-oxo-1,2,3,4-tetrahydroisoquinolin-7-yl)benzenesulfonamide]
33 | 100 to 500 | CC1(C)Cc2ccc(NS(=O)(=O)c3cccc(Cl)c3Cl)cc2NC1=O [Compound 268, 2,3-dichloro-N-(3,3-dimethyl-2-oxo-1,4-dihydroquinolin-7-yl)benzenesulfonamide]
34 | < 100 | CC1(C)C(=O)N(CCCO)c2cc(NS(=O)(=O)c3cccc(Cl)c3Cl)ccc21 [Compound 273]
35 | < 100 | CC1(C)C(=O)N(CCC(N)=O)c2cc(NS(=O)(=O)c3cccc(Cl)c3Cl)ccc21 [Compound 279, 3-(6-((2,3-dichlorophenyl)sulfonamido)-3,3-dimethyl-2-oxoindolin-1-yl)propanamide]
36 | < 100 | CC1(C)C(=O)N(CCCC(N)=O)c2cc(NS(=O)(=O)c3cccc(Cl)c3Cl)ccc21 [Compound 280, 4-(6-((2,3-dichlorophenyl)sulfonamido)-3,3-dimethyl-2-oxoindolin-1-yl)butanamide]
37 | < 100 | CC1(C)CN(C(=O)c2ccccn2)c2cc(NS(=O)(=O)c3cccc(Cl)c3Cl)ccc21 [Compound 281, 2,3-dichloro-N-(3,3-dimethyl-1-picolinoylindolin-6-yl)benzenesulfonamide]
38 | < 100 | CC1(C)CN(C(=O)C2CCOCC2)c2cc(NS(=O)(=O)c3cccc(Cl)c3Cl)ccc21 [Compound 284, 2,3-dichloro-N-[3,3-dimethyl-1-(tetrahydropyran-4-carbonyl)indolin-6-yl]benzenesulfonamide]
39 | < 100 | CC1(C)CN(C(=O)c2cccnc2)c2cc(NS(=O)(=O)c3cccc(Cl)c3Cl)ccc21 [Compound 285, 2,3-dichloro-N-(3,3-dimethyl-1-nicotinoylindolin-6-yl)benzenesulfonamide]
40 | < 100 | CC(Nc1ccc2c(c1)c(N)nn2C)c1nc(Cl)c(Cl)s1 (centres unmarked) [Compound 288, N5-(1-(4,5-dichlorothiazol-2-yl)ethyl)-1-methyl-1H-indazole-3,5-diamine]
41 | < 100 | CC1(C)c2ccc(NS(=O)(=O)c3cccc(Cl)c3Cl)cc2C(=O)N1CC(N)=O [Compound 289, 2-(5-((2,3-dichlorophenyl)sulfonamido)-1,1-dimethyl-3-oxoisoindolin-2-yl)acetamide]
